# Experimental data from patent US10118930B2, “Piperidinylpyrazolopyrimidinones and their use” (BAYER PHARMA AKTIENGESELLSCHAFT, priority 2015, dated 2018).
# Structures can show the parent of a compound that is named as a salt.
# Test system: clot lysis (fibrinolysis) in diluted human citrated plasma, tPA-induced
# Assay: Plasma-based clot lysis assay (5%)
# Type: biochemical
# Details: human citrated platelet-poor plasma 5%, fibrinogen 3 μM, CaCl2 10 mM, tPA 0.2 nM, 37° C., OD at 405 nm
# Outline: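 Clot formation and breakdown triggered by CaCl2 (10 mM final) plus tPA (0.2 nM final) at 37° C, in 5% diluted human plasma supplemented with 3 μM fibrinogen (HEPES/NaCl/Brij buffer, pH 7). IC50 obtained from time courses relative to a blank control.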
row,Compound,IC50 [nM]
1,"CN(CC1CC1)C(=O)c1cnn2c(C3CCNCC3)cc(=O)[nH]c12 [Example 78, N-(cyclopropylmethyl)-N-methyl-5-oxo-7-(piperidin-4-yl)-4,5-dihydropyrazolo[1,5-a]pyrimidine-3-carboxamide]",48
2,"O=C(NCCN1CCOC1=O)c1cnn2c(C3CCNCC3)cc(=O)[nH]c12 [Example 92, 5-oxo-N-[2-(2-oxo-1,3-oxazolidin-3-yl)ethyl]-7-(piperidin-4-yl)-4,5-dihydropyrazolo[1,5-a]pyrimidine-3-carboxamide hydrochloride]",33
3,"CCOC(=O)c1c(-c2ccccc2)nn2c(C3CCNCC3)cc(=O)[nH]c12 [Example 38, Ethyl 5-oxo-2-phenyl-7-(piperidin-4-yl)-4,5-dihydropyrazolo[1,5-a]pyrimidine-3-carboxylate trifluoroacetate]",18
4,"O=c1cc(C2CCNCC2)n2nc3c(c2[nH]1)CCC3 [Example 30, 4-(Piperidin-4-yl)-1,7,8,9-tetrahydro-2H-cyclopenta[3,4]pyrazolo[1,5-a]pyrimidin-2-one hydrochloride]",200
5,"CC(=O)c1cnn2c(C3CCNCC3)cc(=O)[nH]c12 [Example 370, 3-acetyl-7-(piperidin-4-yl)pyrazolo[1,5-a]pyrimidin-5(4H)-one hydrochloride]",36
6,"CCOC(=O)c1c(SC)nn2c(C3CCNCC3)cc(=O)[nH]c12 [Example 455, Ethyl 2-(methylsulfanyl)-5-oxo-7-(piperidin-4-yl)-4,5-dihydropyrazolo[1,5-a]pyrimidine-3-carboxylate hydrochloride]",36
7,"CCc1cnn2c(C3CCNCC3)cc(=O)[nH]c12 [Example 265, 3-ethyl-7-(piperidin-4-yl)pyrazolo[1,5-a]pyrimidin-5(4H)-one hydrochloride]",340
8,"O=C(c1c(-c2ccccc2)nn2c(C3CCNCC3)cc(=O)[nH]c12)N1CCOCC1 [Example 43, 3-(Morpholin-4-ylcarbonyl)-2-phenyl-7-(piperidin-4-yl)pyrazolo[1,5-a]pyrimidin-5(4H)-one trifluoroacetate]",27
9,"Cc1nn2c(C3CCNCC3)cc(=O)[nH]c2c1C(=O)OCC(F)F [Example 465, 2,2-difluoroethyl 2-methyl-5-oxo-7-(piperidin-4-yl)-4,5-dihydropyrazolo[1,5-a]pyrimidine-3-carboxylate hydrochloride]",40
10,"CCOC(=O)c1c(C(F)(F)F)nn2c(C3CCNCC3)cc(=O)[nH]c12 [Example 458, Ethyl 5-oxo-7-(piperidin-4-yl)-2-(trifluoromethyl)-4,5-dihydropyrazolo[1,5-a]pyrimidine-3-carboxylate hydrochloride]",130
11,"O=C(OCCC(F)(F)F)c1cnn2c(C3CCNCC3)cc(=O)[nH]c12 [Example 355, 3,3,3-trifluoropropyl 5-oxo-7-(piperidin-4-yl)-4,5-dihydropyrazolo[1,5-a]pyrimidine-3-carboxylate hydrochloride]",27
12,"N#Cc1cnn2c(C3CCNCC3)cc(=O)[nH]c12 [Example 15, 5-Oxo-7-(piperidin-4-yl)-4,5-dihydropyrazolo[1,5-a]pyrimidine-3-carbonitrile]",19
13,"Cc1nn2c(C3CCNCC3)cc(=O)[nH]c2c1C(=O)N(C)Cc1ccccc1 [Example 436, N-benzyl-N,2-dimethyl-5-oxo-7-(piperidin-4-yl)-4,5-dihydro-pyrazolo[1,5-a] pyrimidine-3-carboxamide hydrochloride]",39
14,"C[C@H]1C[C@H](c2cc(=O)[nH]c3c(C#N)cnn23)CCN1 [Example 65, (−)-trans-7-(2-Methylpiperidin-4-yl)-5-oxo-4,5-dihydropyrazolo[1,5-a]pyrimidine-3-carbonitrile trifluoroacetate]",12
15,"COC(=O)c1cc2[nH]c(=O)cc(C3CCNCC3)n2n1 [Example 28, Methyl 5-oxo-7-(piperidin-4-yl)-4,5-dihydropyrazolo[1,5-a]pyrimidine-2-carboxylate]",110
16,"CCN(Cc1ccccc1)C(=O)c1c(C)nn2c(C3CCNCC3)cc(=O)[nH]c12 [Example 423, N-benzyl-N-ethyl-2-methyl-5-oxo-7-(piperidin-4-yl)-4,5-dihydro-pyrazolo[1,5-a] pyrimidine-3-carboxamide hydrochloride]",33

# Second part, the compound after the results:
row,IC50 [nM],Compound
1,21,"CC(C)(C)C[C@@H]1C[C@H](c2cc(=O)[nH]c3c(-c4nc(-c5ccccc5F)no4)cnn23)CCN1 [Example 349, 7-[(2S,4R)-2-(2,2-dimethylpropyl)piperidin-4-yl]-3-[3-(2-fluorophenyl)-1,2,4-oxadiazol-5-yl]pyrazolo[1,5-a]pyrimidin-5(4H)-one hydrochloride]"
2,27,"COCCc1noc(-c2c(C)nn3c(C4CCNCC4)cc(=O)[nH]c23)n1 [Example 297, 3-[3-(2-methoxyethyl)-1,2,4-oxadiazol-5-yl]-2-methyl-7-(piperidin-4-yl)pyrazolo[1,5-a]pyrimidin-5(4H)-one hydrochloride]"
3,18,"O=c1cc(C2CCNCC2)n2ncc(-c3nc(C4CC4)cs3)c2[nH]1 [Example 311, 3-(4-cyclopropyl-1,3-thiazol-2-yl)-7-(piperidin-4-yl)pyrazolo[1,5-a]pyrimidin-5(4H)-one hydrochloride]"
4,32,"Cc1ccc(NC(=O)c2cnn3c(C4CCNCC4)cc(=O)[nH]c23)cc1C [Example 85, N-(3,4-dimethylphenyl)-5-oxo-7-(piperidin-4-yl)-4,5-dihydropyrazolo[1,5-a]pyrimidine-3-carboxamide hydrochloride]"
5,28,"Cc1nn2c(C3CCNCC3)cc(=O)[nH]c2c1-c1nc(-c2ccccc2OC(F)(F)F)no1 [Example 347, 2-methyl-7-(piperidin-4-yl)-3-{3-[2-(trifluoromethoxy)phenyl]-1,2,4-oxadiazol-5-yl}pyrazolo[1,5-a]pyrimidin-5(4H)-one hydrochloride]"
6,26,"O=c1cc(C2CCNCC2)n2ncc(-c3nc(C(F)(F)F)cs3)c2[nH]1 [Example 351, 7-(piperidin-4-yl)-3-[4-(trifluoromethyl)-1,3-thiazol-2-yl]pyrazolo[1,5-a]pyrimidin-5 (4H)-one hydrochloride]"
7,34,"COCc1nnc(-c2cnn3c(C4CCNCC4)cc(=O)[nH]c23)o1 [Example 173, 3-[5-(methoxymethyl)-1,3,4-oxadiazol-2-yl]-7-(piperidin-4-yl)pyrazolo[1,5-a]pyrimidin-5(4H)-one hydrochloride]"
8,30,"O=c1cc(C2CCNCC2)n2ncc(-c3noc(CC(F)(F)F)n3)c2[nH]1 [Example 388, 7-(Piperidin-4-yl)-3-[5-(2,2,2-trifluoroethyl)-1,2,4-oxadiazol-3-yl]pyrazolo[1,5-a]pyrimidin-5(4H)-one hydrochloride]"
9,14,"O=c1cc(C2CCNCC2)n2ncc(-c3cccc(Cl)c3)c2[nH]1 [Example 48, 3-(3-Chlorophenyl)-7-(piperidin-4-yl)pyrazolo[1,5-a]pyrimidin-5(4H)-one hydrochloride]"
10,20,"COc1ccc(C2(c3nnc(-c4cnn5c(C6CCNCC6)cc(=O)[nH]c45)o3)CC2)cc1 [Example 305, 3-{5-[1-(4-methoxyphenyl)cyclopropyl]-1,3,4-oxadiazol-2-yl}-7-(piperidin-4-yl)pyrazolo[1,5-a]pyrimidin-5(4H)-one hydrochloride]"
11,46,"O=C(O)c1cnn2c(C3CCNCC3)cc(=O)[nH]c12 [Example 17, 5-Oxo-7-(piperidin-4-yl)-4,5-dihydropyrazolo[1,5-a]pyrimidine-3-carboxylic acid hydrochloride]"
12,120,"O=c1cc(C2CCNCC2)n2ncc(-c3nc(-c4ccc(F)s4)no3)c2[nH]1 [Example 109, 3-[3-(5-fluorothiophen-2-yl)-1,2,4-oxadiazol-5-yl]-7-(piperidin-4-yl)pyrazolo[1,5-a]pyrimidin-5(4H)-one]"
13,41,"Cc1ccc(-c2csc(-c3cnn4c(C5CCNCC5)cc(=O)[nH]c34)n2)cc1 [Example 309, 3-[4-(4-methylphenyl)-1,3-thiazol-2-yl]-7-(piperidin-4-yl)pyrazolo[1,5-a]pyrimidin-5(4H)-one hydrochloride]"
14,43,"O=c1cc(C2CCNCC2)n2ncc(-c3nc(-c4ccc(C(F)(F)F)cc4Cl)no3)c2[nH]1 [Example 136, 3-{3-[2-Chloro-4-(trifluoromethyl)phenyl]-1,2,4-oxadiazol-5-yl}-7-(piperidin-4-yl)pyrazolo[1,5-a]pyrimidin-5(4H)-one hydrochloride]"
15,55,"Nc1cccc(-c2noc(-c3cnn4c(C5CCNCC5)cc(=O)[nH]c34)n2)c1 [Example 208, 3-[3-(3-aminophenyl)-1,2,4-oxadiazol-5-yl]-7-(piperidin-4-yl)pyrazolo[1,5-a]pyrimidin-5 (4H)-one hydrochloride]"
16,23,"O=C(OC1CCC1)c1cnn2c(C3CCNCC3)cc(=O)[nH]c12 [Example 356, Cyclobutyl 5-oxo-7-(piperidin-4-yl)-4,5-dihydropyrazolo[1,5-a]pyrimidine-3-carboxylate hydrochloride]"
17,36,"O=c1cc(C2CCNCC2)n2ncc(-c3noc(Cc4cccc(Cl)c4)n3)c2[nH]1 [Example 217, 3-[5-(3-chlorobenzyl)-1,2,4-oxadiazol-3-yl]-7-(piperidin-4-yl)pyrazolo[1,5-a]pyrimidin-5(4H)-one hydrochloride]"
18,28,"CC(C)c1nc(-c2cnn3c(C4CCNCC4)cc(=O)[nH]c23)no1 [Example 256, 7-(piperidin-4-yl)-3-[5-(propan-2-yl)-1,2,4-oxadiazol-3-yl]pyrazolo[1,5-a]pyrimidin-5(4H)-one hydrochloride]"
19,36,"O=c1cc(C2CCNCC2)n2ncc(-c3nc(Cc4ccccc4Cl)no3)c2[nH]1 [Example 209, 3-[3-(2-chlorobenzyl)-1,2,4-oxadiazol-5-yl]-7-(piperidin-4-yl)pyrazolo[1,5-a]pyrimidin-5(4H)-one hydrochloride]"
